Data published in US11952344B2, “Heterocyclic compound and use thereof” (TAKEDA PHARMACEUTICAL COMPANY LIMITED, priority 2019, dated 2024).

Biological target: T1, Human NMDA (NR1/NR2B) Receptor (Homo sapiens, UniProt Q13224)
T1 construct: host or cells: HEK293
Assay: NR2B Ca2+ influx assay
Assay type: cell-based
Conditions: 10 μM compound; HEK293 cells expressing GRIN1 and GRIN2B; glutamic acid/glycine-induced Ca2+ influx, Fluo-4 fluorescence; read-out: inhibitory rate (10 μM compound concentration)
Source text: Experimental Example 1 NR2B Ca^2+ Influx Assay
To confirm the “antagonistic action on an NMDA receptor containing the NR2B subunit” of the compound of the present invention, human embryonic kidney cell expressing the “NMDA receptor composed of four subunits including 2 sets of heterodimers of NR1 and NR2B”, specifically HEK293 cell expressing human glutamate ionotropic receptor NMDA type subunit 1 (GRIN1) and human glutamate ionotropic receptor NMDA type subunit 2B (GRIN2B), was used and the activation suppressive effect (inhibitory activity) on the receptors by the compound of the present invention was measured.
HEK293 cells that express GRIN1 and GRIN2B were purchased from ChanTest (Human NMDA (NR1/NR2B) Receptor-expressing, stable replicating cell line (HEK293) catalog No. CT6121).
As an index of the NMDA receptor activation, intracellular calcium ion (Ca^2+) influx caused by the binding of glycine and glutamic acid with NR1 and NR2B, respectively, was used.
HEK293 cells that express GRIN1 and GRIN2B were cultured in a cell culture flask in DMEM/F-12 (COSMO BIO, 10-092-CM) medium added with 10% FBS (fetal bovine serum, AusGene), 100 units/mL penicillin, 100 μg/mL streptomycin, 500 μg/mL neomycin, 100 μg/mL Zeocin (registered trade mark, Invitrogen), 5 μg/mL Blasticidin, in an incubator (37° C., 5% CO2).
The cells were detached from flask with trypsin the day before the assay, suspended in a seeding medium (DMEM (Invitrogen, 31053) added with 10% FBS, 100 units/mL penicillin, 100 μg/mL streptomycin) at 8×10^5 cells/mL, seeded by 25 μL/well in a 384-well plate (Falcon, 356663) at 20000 cells/well, and cultured overnight in an incubator. On the day of the assay, tetracycline (Wako Pure Chemical Industries, Ltd., 209-16561) was diluted with the seeding medium at 2 μg/mL, added at 25 μL/well to the plate seeded with the cells, and cultured for 2 hr in an incubator. Thereafter, the medium was removed, and the cells were washed with 50 μL/well assay buffer (137 mM NaCl, 4 mM KCl, 1.8 mM CaCl2, 10 mM HEPES (pH 7.2), 10 mM Glucose, 0.1% BSA). Then, a loading buffer (assay buffer added with 2.5 μM Fluo-4AM, 2 mM Amaranth, 1 mM Tartrazine) was added at 25 μL/well, and incubation was performed in the incubator for 30 min, and at room temperature for 15 min. A solution (25 μL/well) of the Example compound diluted with the above-mentioned assay buffer at 30 μM (final concentration 10 μM) was added, and the cells were stood for 15 min at room temperature. Using FDSS7000EX/μCELL (Hamamatsu Photonics K.K.), 25 μL/well of an assay buffer containing 30 μM glutamic acid, 30 μM glycine was added, and the fluorescence signal at wavelength of Excitation 480 nm, Emission 540 nm was measured every 3 seconds for 5 min. The inhibitory activity was calculated as a relative activity value (inhibitory rate) that inhibits 100% of the cumulative value of the fluorescence value of a well added with an assay buffer free of glutamic acid, glycine, relative to the cumulative value of the fluorescence value of each well.

T1 sequence (Q13224 27-1484, other chains not shown): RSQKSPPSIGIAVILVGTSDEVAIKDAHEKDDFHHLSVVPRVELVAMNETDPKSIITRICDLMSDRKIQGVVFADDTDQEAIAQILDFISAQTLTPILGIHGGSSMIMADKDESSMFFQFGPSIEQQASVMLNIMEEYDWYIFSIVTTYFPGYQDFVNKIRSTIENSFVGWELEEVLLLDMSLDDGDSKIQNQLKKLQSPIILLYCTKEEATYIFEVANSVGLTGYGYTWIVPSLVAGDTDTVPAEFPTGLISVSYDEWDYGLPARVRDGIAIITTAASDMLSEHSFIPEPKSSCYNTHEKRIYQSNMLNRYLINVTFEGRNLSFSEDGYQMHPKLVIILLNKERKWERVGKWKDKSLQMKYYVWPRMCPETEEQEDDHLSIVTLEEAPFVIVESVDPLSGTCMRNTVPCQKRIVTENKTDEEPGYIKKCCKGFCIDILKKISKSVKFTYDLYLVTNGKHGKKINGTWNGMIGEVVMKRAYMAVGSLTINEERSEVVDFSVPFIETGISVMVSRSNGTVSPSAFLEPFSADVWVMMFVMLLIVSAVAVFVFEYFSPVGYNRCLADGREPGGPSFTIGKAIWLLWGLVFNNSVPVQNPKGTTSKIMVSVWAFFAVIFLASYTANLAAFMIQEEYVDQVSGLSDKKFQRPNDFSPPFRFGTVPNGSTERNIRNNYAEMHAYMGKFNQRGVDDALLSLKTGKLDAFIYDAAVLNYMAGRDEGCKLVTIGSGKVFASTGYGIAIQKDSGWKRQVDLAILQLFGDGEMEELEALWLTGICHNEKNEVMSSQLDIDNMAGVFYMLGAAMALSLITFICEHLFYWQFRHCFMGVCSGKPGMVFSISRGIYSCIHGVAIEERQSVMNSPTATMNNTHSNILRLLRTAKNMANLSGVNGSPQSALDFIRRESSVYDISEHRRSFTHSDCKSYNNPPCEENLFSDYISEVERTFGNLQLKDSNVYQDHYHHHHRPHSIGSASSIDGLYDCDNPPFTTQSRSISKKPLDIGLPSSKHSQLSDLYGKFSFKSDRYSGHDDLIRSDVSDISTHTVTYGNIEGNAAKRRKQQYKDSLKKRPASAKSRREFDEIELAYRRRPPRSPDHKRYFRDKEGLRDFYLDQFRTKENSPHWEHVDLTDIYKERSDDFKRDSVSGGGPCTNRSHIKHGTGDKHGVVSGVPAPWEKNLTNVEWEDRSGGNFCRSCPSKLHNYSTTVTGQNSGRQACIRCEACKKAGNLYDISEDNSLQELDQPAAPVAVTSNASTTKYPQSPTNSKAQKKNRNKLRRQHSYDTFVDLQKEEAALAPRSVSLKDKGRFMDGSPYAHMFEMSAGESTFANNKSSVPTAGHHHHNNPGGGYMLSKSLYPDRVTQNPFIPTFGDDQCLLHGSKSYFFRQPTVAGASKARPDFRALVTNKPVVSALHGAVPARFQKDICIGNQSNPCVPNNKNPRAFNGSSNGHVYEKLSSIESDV

SMILES	inhibition at 10 µM
O=C(NCc1cncnc1C1CC(F)(F)C1)c1cnc(OC(F)F)c(F)c1 [Example 36, N-{[4-(3,3-difluorocyclobutyl)-pyrimidin-5-yl]methyl}-6-(difluoromethoxy)-5-fluoropyridine-3-carboxamide]	92%
O=C(NCc1cncnc1C1CC1(F)F)c1cnc(OC(F)F)c(F)c1 (centres unmarked) [Example 37, N-{[4-(2,2-difluorocyclopropyl)-pyrimidin-5-yl]methyl}-6-(difluoromethoxy)-5-fluoropyridine-3-carboxamide]	84%
CCc1ccncc1CNC(=O)c1cnc(OC(F)F)c(F)c1 [Example 38, 6-(difluoromethoxy)-N-[(4-ethylpyridin-3-yl)methyl]-5-fluoropyridine-3-carboxamide]	94%
O=C(NCc1cncc(F)c1OC1CC1)c1cnc(OC(F)F)c(F)c1 [Example 39, N-{[4-(cyclopropyloxy)-5-fluoropyridin-3-yl]methyl}-6-(difluoromethoxy)-5-fluoropyridine-3-carboxamide]	97%
Cc1c(F)cncc1CNC(=O)c1cnc(OC(F)F)c(F)c1 [Example 40, 6-(difluoromethoxy)-5-fluoro-N-[(5-fluoro-4-methylpyridin-3-yl)methyl]pyridine-3-carboxamide]	96%
CCc1c(F)cncc1CNC(=O)c1cnc(OC(F)F)c(F)c1 [Example 41, 6-(difluoromethoxy)-N-[(4-ethyl-5-fluoropyridin-3-yl)methyl]-5-fluoropyridine-3-carboxamide]	94%
CC(F)(F)c1ccncc1CNC(=O)c1cnc(OC(F)F)c(F)c1 [Example 43, N-{[4-(1,1-difluoroethyl)pyridin-3-yl]methyl}-6-(difluoromethoxy)-5-fluoropyridine-3-carboxamide]	90%
COc1ncc(C(=O)NCc2cnccc2C)cc1F [Example 44, 5-fluoro-6-methoxy-N-[(4-methylpyridin-3-yl)methyl]pyridine-3-carboxamide]	79%
CCOc1ncc(C(=O)NCc2cnccc2C)cc1F [Example 45, 6-ethoxy-5-fluoro-N-[(4-methylpyridin-3-yl)methyl]pyridine-3-carboxamide]	91%
Cc1ccncc1CNC(=O)c1cnc(C2CC2)c(F)c1 [Example 46, 6-cyclopropyl-5-fluoro-N-[(4-methylpyridin-3-yl)methyl]pyridine-3-carboxamide]	95%
Cc1c(Cl)cncc1CNC(=O)c1cnc(OC(F)F)c(F)c1 [Example 47, N-[(5-chloro-4-methylpyridin-3-yl)methyl]-6-(difluoromethoxy)-5-fluoropyridine-3-carboxamide]	97%
Cc1ccncc1CNC(=O)c1ccc(OC(F)F)c(F)c1 [Example 48, 4-(difluoromethoxy)-3-fluoro-N-[(4-methylpyridin-3-yl)methyl]benzamide]	88%
Cc1ccncc1CNC(=O)c1ccc(OC(F)(F)F)c(F)c1 [Example 49, 3-fluoro-N-[(4-methylpyridin-3-yl)methyl]-4-(trifluoromethoxy)-benzamide]	94%
Cc1ccncc1CNC(=O)c1ccc(OC(F)F)cc1 [Example 50, 4-(difluoromethoxy)-N-[(4-methylpyridin-3-yl)methyl]benzamide]	90%
Cc1ccncc1CNC(=O)c1ccc(OC(F)F)nc1 [Example 51, 6-(difluoromethoxy)-N-[(4-methylpyridin-3-yl)methyl]pyridine-3-carboxamide]	87%
Cc1ccncc1CNC(=O)c1cnc(C(F)(F)F)c(Cl)c1 [Example 52, 5-chloro-N-[(4-methylpyridin-3-yl)methyl]-6-(trifluoromethyl)pyridine-3-carboxamide]	83%
Cc1ccncc1CNC(=O)c1ccc(C(F)(F)F)c(F)c1 [Example 53, 3-fluoro-N-[(4-methylpyridin-3-yl)methyl]-4-(trifluoromethyl)-benzamide]	91%
Cc1ccncc1CNC(=O)c1ccc(C(F)(F)F)c(Cl)c1 [Example 54, 3-chloro-N-[(4-methylpyridin-3-yl)methyl]-4-(trifluoromethyl)-benzamide]	94%

SMILES	inhibition at 10 µM
Cc1ccncc1CNC(=O)c1cc(F)c(OC(F)F)c(F)c1 [Example 55, 4-(difluoromethoxy)-3,5-difluoro-N-[(4-methylpyridin-3-yl)methyl]benzamide]	91%
Cc1ccncc1CNC(=O)c1csc(C2CC2)c1 [Example 56, 5-cyclopropyl-N-[(4-methylpyridin-3-yl)methyl]thiophene-3-carboxamide]	93%
Cc1ccncc1CNC(=O)c1cc(F)c(C(F)F)c(F)c1 [Example 57, 4-(difluoromethyl)-3,5-difluoro-N-[(4-methylpyridin-3-yl)methyl]benzamide]	78%
Cc1ccncc1CNC(=O)c1ccc(C(F)F)c(F)c1 [Example 58, 4-(difluoromethyl)-3-fluoro-N-[(4-methylpyridin-3-yl)methyl]benzamide]	85%
Cc1ccncc1CNC(=O)c1ccc(C(F)F)c(Cl)c1 [Example 59, 3-chloro-4-(difluoromethyl)-N-[(4-methylpyridin-3-yl)methyl]benzamide]	93%
COc1ccc(C(=O)NCc2cnccc2C)cc1F [Example 60, 3-fluoro-4-methoxy-N-[(4-methylpyridin-3-yl)methyl]benzamide]	88%
CCOc1c(F)cncc1CNC(=O)c1cnc(OC(F)F)c(F)c1 [Example 61, 6-(difluoromethoxy)-N-[(4-ethoxy-5-fluoropyridin-3-yl)methyl]-5-fluoropyridine-3-carboxamide]	95%
COc1ncncc1CNC(=O)c1cc(F)c(OC)c(F)c1 [Example 62, 3,5-difluoro-4-methoxy-N-[(4-methoxypyrimidin-5-yl)methyl]benzamide]	87%
Cc1ccncc1CNC(=O)c1ccc(C(F)(F)F)s1 [Example 64, N-[(4-methylpyridin-3-yl)methyl]-5-(trifluoromethyl)thiophene-2-carboxamide]	85%
CCOc1ncc(C(=O)NCc2cnccc2C)cc1Cl [Example 65, 5-chloro-6-ethoxy-N-[(4-methylpyridin-3-yl)methyl]pyridine-3-carboxamide]	93%
COc1ncc(C(=O)NCc2cnccc2C)cc1Cl [Example 66, 5-chloro-6-methoxy-N-[(4-methylpyridin-3-yl)methyl]pyridine-3-carboxamide]	84%
COc1c(F)cc(C(=O)NCc2cncc(F)c2C)cc1F [Example 67, 3,5-difluoro-N-[(5-fluoro-4-methylpyridin-3-yl)methyl]-4-methoxybenzamide]	92%
Cc1c(F)cncc1CNC(=O)c1cc(F)c(OC(F)F)c(F)c1 [Example 68, 4-(difluoromethoxy)-3,5-difluoro-N-[(5-fluoro-4-methylpyridin-3-yl)methyl]benzamide]	93%
Cc1c(F)cncc1CNC(=O)c1ccc(OC(F)F)c(F)c1 [Example 69, 4-(difiuoromethoxy)-3-fluoro-N-[(5-fluoro-4-methylpyridin-3-yl)methyl]benzamide]	94%
O=C(NCc1cnccc1C(F)F)c1cnc(OC(F)F)c(F)c1 [Example 70, 6-(difluoromethoxy)-N-{[4-(difluoromethyl)pyridin-3-yl]methyl)-5-fluoropyridine-3-carboxamide]	91%
COc1c(F)cc(C(=O)NCc2cnccc2C)cc1F [Example 71, 3,5-difluoro-4-methoxy-N-[(4-methylpyridin-3-yl)methyl]benzamide]	91%
CCOc1c(F)cc(C(=O)NCc2cnccc2C)cc1F [Example 72, 4-ethoxy-3,5-difluoro-N-[(4-methylpyridin-3-yl)methyl]benzamide]	87%
